# In patent US20220380341A1, “INHIBITORS OF HIV-1 NEF FOR THE TREATMENT OF HIV DISEASE” (priority 2018, published 2022):
# Read-outs that look alike come from different tables or passages of the source.
# Legend:
# [1] = molecular target: HIV-1 NefNL4-3 (Human immunodeficiency virus type 1 group M subtype B, UniProt P03406, A33V/T15A/T51N/V11I); assay: Surface plasmon resonance binding to recombinant full-length Nef (NL4-3); conditions: for RU30/RUNef (extent of binding): response units at 30 μM relative to Nef immobilized on the SPR chip
# [2] = system: HIV-1NL4-3; assay: HIV-1 infectivity assay in TZM-bl reporter cell line (LTR-luciferase, 48 h); format: cell-based; conditions: for inhibition at 1 µM: Human immunodeficiency virus 1, TZM-bl
# Procedure: (§1) In particular, the tables show antiretroviral activity as percent inhibition of HIV-1 infectivity at 1 μM. In brief, this assay uses the TZM-bl reporter cell line, which carries a stable copy of the HIV-1 LTR coupled to luciferase. Cells are infected with HIV-1NL4-3 in the presence and absence of each compound, and luciferase activity is measured 48 h later. This assay measures early events in the HIV-1 life cycle, including viral entry, reverse transcription, nuclear entry and integration, and viral transcription. All assays include control cells infected with Nef-defective HIV-1, which replicates at 30-50% of wild-type in this system. Results are normalized to percent inhibition relative to DMSO-treated control cells infected with wild-type HIV-1 (0% inhibition) and DMSO-treated cells infected with Nef-defective HIV-1 (100% of the Nef-dependent effect)—see column 3. In addition, cell viability is measured in the TZM-bl cell line in the presence of each test compound and in the absence of HIV-1 infection, using the Cell Titer Blue cell viability assay (Promega; column 4).
# [3] = system: TZM-bl cell line; format: cell-based
# Procedure: as §1
# [4] = Table 1, 1:1 Langmuir fit where the KD2 cell says '1 to 1 fitting', else 2-site fit
# [5] = 48 h, Table 1, TZM-bl cells, 1 μM, 48 h, 100% = Nef-defective HIV-1, read-out: HIV-1 Infectivity % Inhibition Norm. to Δ-Nef @ 1 μM
# [6] = Table 4, 2-step induced fit, T = 1/koff2
# [7] = read-out: Nef NL4-3 Binding, SPR 1:1 or 2-site fitting KD2, Table 1, 2-site fit, second component
# [8] = 1.0 μM, TZM-bl reporter cell line, Table 4, read-out: % Infectivity Inhibition
# [9] = KD, M, Table 4, SPR fit 2-step induced fit, KD = koff/kon × koff2/(koff2 + kon2)
# [10] = Nef NL4-3 Binding, SPR 2-state fitting KD, Table 1, 2-step induced-fit model
SMILES,"Nef NL4-3 Binding, SPR 1:1 or 2-site fitting KD1 [1, 4]","inhibition at 1 µM [2, 5] [%]","Percent Viability @ 1 μM (TZM-bl cells) ([3]; human, 1 μM) [%]","Kd ([1]; Table 1, 1:1 Langmuir fit where the KD2 cell says '1 to 1 fitting', else 2-site fit, read-out: Nef NL4-3 Binding, SPR 1:1 or 2-site fitting KD1) [nM]","HIV-1 Infectivity % Inhibition Norm. to Δ-Nef @ 1 μM ([2]; Table 1, TZM-bl cells, 1 μM, 48 h, 100% = Nef-defective HIV-1) [%]",Percent Viability @ 1 μM (TZM-bl cells) [3] [%],"T, minutes (residence time) [1, 6]","Kd ([1]; Table 4, SPR fit 2-step induced fit, KD = koff/kon × koff2/(koff2 + kon2)) [nM]","Kd ([1]; read-out: Nef NL4-3 Binding, SPR 1:1 or 2-site fitting KD1, Table 1, 1:1 Langmuir fit where the KD2 cell says '1 to 1 fitting', else 2-site fit) [nM]","Kd [1, 7] [nM]","Kd ([1]; read-out: Nef NL4-3 Binding, SPR 2-state fitting KD, Table 1, 2-step induced-fit model) [nM]",RU30/RUNef (extent of binding) [1],"inhibition at 1 µM [2, 8] [%]","% Cell Viability ([3]; human, 1 μM) [%]",Kd [1] [nM],"Kd [1, 9] [nM]","Kd [1, 10] [nM]","Kd ([1]; KD, M, Table 4, SPR fit 1:1 Langmuir, KD = koff/kon) [nM]","T, minutes (residence time) ([1]; Table 4, 1:1 Langmuir fit, T = 1/koff) [E + 00 minutes]"
"Oc1c(CCc2ccc(F)cc2)c(-c2cnc(C(F)(F)F)nc2)nn1-c1nc2ccccc2[nH]1 [Compound I-126, 1-(1H-1,3-benzodiazol-2-yl)-4-[2-(4-fluorophenyl)ethyl]-3-[2-(trifluoromethyl)pyrimidin-5-yl]-1H-pyrazol-5-ol]",No Interaction,-13.9,107.8,–,–,–,–,–,–,–,–,–,–,–,–,–,–,–,–
"Cn1cccc(-c2nn(-c3nc4ccccc4[nH]3)c(O)c2CCc2ccc(F)cc2)c1=O [Compound I-127, 3-[1-(1H-1,3-benzodiazol-2-y1)-4-[2-(4-fluorophenyl)ethyl]-5-hydroxy-1H-pyrazol-3-yl]-1-methyl-1,2-dihydropyridin-2-one]",–,–,–,2100,2.4,100.0,–,–,–,–,–,–,–,–,–,–,–,–,–
"Cc1ccn(CCc2c(-c3ccc(C(F)(F)F)cc3)nn(-c3nc4ccccc4[nH]3)c2O)n1 [Compound I-128, 1-(1H-1,3-benzodiazol-2-yl)-4-[2-(3-methyl-1H-pyrazol-1-yl)ethyl]-3-[4-(trifluoromethyl)phenyl]-1H-pyrazol-5-ol]",–,33.5,97.9,–,–,–,1.20E + 03 minutes,7.64,0.146,4330,7.64,5.56E- 03,33.5,97.9,–,–,–,–,–
"CC(C)(C)c1nn(-c2nc3ccccc3[nH]2)c(O)c1CCc1ccc(F)cc1 [Compound I-130, 1-(1H-1,3-benzodiazol-2-yl)-3-tert-butyl-4-[2-(4-fluorophenyl)ethyl]-1H-pyrazol-5-ol]",–,43.6,98.7,–,–,–,1.15E + 01 minutes,–,–,13000,–,9.49E- 03,43.6,98.7,702,3800,3800,–,–
"Oc1c(CCN2CCOCC2)c(-c2ccc(C(F)(F)F)cc2)nn1-c1nc2ccccc2[nH]1 [Compound I-131, 1-(1H-1,3-benzodiazol-2-yl)-4-[2-(morpholin-4-yl)ethyl]-3-[4-(trifluoromethyl)phenyl]-1H-pyrazol-5-ol]",–,14.2,96.4,–,–,–,5.16E + 00 minutes,–,–,17800,–,1.06E- 02,14.2,96.4,1360,4930,4930,–,–
"O=C1CCCN1CCc1c(-c2ccc(C(F)(F)F)cc2)nn(-c2nc3ccccc3[nH]2)c1O [Compound I-132, 1-{2-[1-(1H-1,3-benzodiazol-2-yl)-5-hydroxy-3-[4-(trifluoromethyl)phenyl]-1H-pyrazol-4-yl]ethyl}pyrrolidin-2-one]",–,15.7,96.5,–,–,–,5.46E + 00 minutes,–,–,8010,–,5.62E- 03,15.7,96.5,61.8,1700,1700,–,–
"Cn1ccc(-c2nn(-c3nc4ccccc4[nH]3)c(O)c2CCc2ccc(F)cc2)cc1=O [Compound I-133, 4-[1-(1H-1,3-benzodiazol-2-y1)-4-[2-(4-fluorophenyl)ethyl]-5-hydroxy-1H-pyrazol-3-yl]-1-methyl-1,2-dihydropyridin-2-one]",–,16,102.5,–,–,–,8.59E + 03 minutes,–,–,65300,–,2.76E- 03,16,100,779,1.51,1.51,–,–
"Cn1cc(-c2nn(-c3nc4ccccc4[nH]3)c(O)c2CCc2ccc(F)cc2)ccc1=O [Compound I-134, 5-[1-(1H-1,3-benzodiazol-2-y1)-4-[2-(4-fluorophenyl)ethyl]-5-hydroxy-1H-pyrazol-3-yl]-1-methyl-1,2-dihydropyridin-2-one]",No Interaction,45.8,100.5,–,–,–,–,–,–,–,–,–,–,–,–,–,–,–,–
"Oc1c(CCc2ccc(F)cc2)c(-c2ccc(C(F)(F)F)nc2)nn1-c1nc2ccccc2[nH]1 [Compound I-135, 1-(1H-1,3-benzodiazol-2-yl)-4-[2-(4-fluorophenyl)ethyl]-3-[6-(trifluoromethyl)pyridin-3-yl]-1H-pyrazol-5-ol]",–,35.7,91.9,–,–,–,1.47E + 03 minutes,–,–,–,–,2.87E- 03,35.7,91.9,636,14.7,14.7,–,–
"Oc1c(CCc2ccc(F)cc2)c(C2CCCO2)nn1-c1nc2ccccc2[nH]1 (centres unmarked) [Compound I-136, 1-(1H-1,3-benzodiazol-2-yl)-4-[2-(4-fluorophenyl)ethyl]-3-(oxolan-2-yl)-1H-pyrazol-5-ol]",–,26.5,99.9,–,–,–,3.32E + 00 minutes,–,–,4770,–,5.11E- 03,26.5,99.9,160,2460,2460,–,–
"Cn1cccc(CCc2c(-c3ccc(C(F)(F)F)cc3)nn(-c3nc4ccccc4[nH]3)c2O)c1=O [Compound I-137, 3-{2-[1-(1H-1,3-benzodiazol-2-yl)-5-hydroxy-3-[4-(trifluoromethyl)phenyl]-1H-pyrazol-4-yl]ethyl}-1-methyl-1,2-dihydropyridin-2-one]",–,-1.4,99.4,–,–,–,–,–,–,–,–,1.02E- 03,0,99.4,243,–,–,243,5.36
"COc1cccc(-c2nn(-c3nc4ccccc4[nH]3)c(O)c2CCc2ccc(F)cc2)n1 [Compound I-138, 1-(1H-1,3-benzodiazol-2-yl)-4-[2-(4-fluorophenyl)ethyl]-3-(6-methoxypyridin-2-yl)-1H-pyrazol-5-ol]",–,48.2,95.8,–,–,–,–,–,–,–,–,–,–,–,3960,–,–,–,–
"Oc1c(CCC2CCOCC2)c(-c2ccc(C(F)(F)F)cc2)nn1-c1nc2ccccc2[nH]1 [Compound I-139, 1-(1H-1,3-benzodiazol-2-yl)-4-[2-(oxan-4-yl)ethyl]-3-[4-(trifluoromethyl)phenyl]-1H-pyrazol-5-ol]",–,44.1,80.8,–,–,–,1.77E + 01 minutes,–,–,–,–,3.41E- 03,44.1,80.8,556,2070,2070,–,–
"Cc1ccc(-c2nn(-c3nc4ccccc4[nH]3)c(O)c2CCc2ccc(F)cc2)cn1 [Compound I-140, 1-(1H-1,3-benzodiazol-2-yl)-4-[2-(4-fluorophenyl)ethyl]-3-(6-methylpyridin-3-yl)-1H-pyrazol-5-ol]",–,57.3,98.3,–,–,–,–,–,–,–,–,–,–,–,915,–,–,–,–
